According to patent publication US20020128301A1, “Non-nucleoside reverse transcriptase inhibitors” (priority 1998, published 2002):

Assay: Bioavailability: release of the mother compound of Formula P-2 from orally administered prodrugs in rats, plasma assayed by HPLC
Conditions: oral, propylene glycol vehicle, fasted male Sprague Dawley rats, dose corresponding to […]; released drug (1S,2S)-N-[cis-2-(6-fluoro-2-hydroxy-3-propionylphenyl)cyclopropyl]-N'-[2-(5-cyanopyridyl)]urea measured in plasma
Description: At 30, 60, 120, 240 & 360 minutes, 0.2 ml blood were collected, centrifuged and frozen for later analysis. […] Aliquots comprising 40-100 μl of each plasma sample are mixed with an equal volume of acetonitrile (10 seconds, Vibrofex). The sample is centrifuged (2 min, 14000 RPM) and 30 μl the supernatant is injected into an HPLC system, as follows.

Structure (SMILES)	Bioavailability 0-6 hours
CCC(=O)c1ccc(F)c([C@@H]2C[C@@H]2NC(=O)Nc2ccc(C#N)cn2)c1OC(=O)OCOC(=O)[C@@H](N)C(C)C (relative stereo) [Example 7, (1S,2S)-N-[cis-2-(6-fluoro-2-(L-valyloxy)methoxycarbonyloxy-3-propionylphenyl)cyclopropyl]-N′-[2-(5-cyanopyridyl)]urea]	70%
CCC(=O)c1ccc(F)c([C@@H]2C[C@@H]2NC(=O)Nc2ccc(C#N)cn2)c1OCOC(=O)OC(COC(=O)[C@@H](N)C(C)C)COC(=O)[C@@H](N)C(C)C (relative stereo) [Example 6]	50%
CCC(=O)c1ccc(F)c([C@@H]2C[C@@H]2NC(=O)Nc2ccc(C#N)cn2)c1OCOC(=O)[C@@H](N)[C@@H](C)CC (relative stereo) [Example 1, (1S, 2S)-N-{cis-2-[6-fluoro-2-(L-isoleucyloxymethyloxy)-3-propionylphenyl]cyclopropyl}-N′-[2-(5-cyanopyridyl)]urea]	34%
